According to patent publication US20230310542A1, “EPIGENETIC MODIFIERS TO TREAT RETINAL DEGENERATIONS” (priority 2022, published 2023):

How the values were obtained:
Format in all cases: in vivo, mouse
rd10 mice retina [1] = assay: RNA-seq of PN24 retina, rd10 mice
Procedure: RNA was extracted from PN24 retina of WT and rd10 animals treated with saline or GSK from PN9 till PN24. RNA integrity number (RIN) was measured using BioAnalyzer (Agilent Technologies) RNA 6000 Nano Kit to confirm RIN above 7 for each sample. The cDNA libraries were prepared using the Illumina® Stranded mRNA Prep, Ligation kit (Illumina) as per the manufacturer's instructions. Briefly, polyA RNA was purified from 200 ng of total RNA using oligo (dT) beads. The extracted mRNA fraction was subjected to fragmentation, reverse transcription, end repair, 3′— end adenylation, and adaptor ligation, followed by PCR amplification and SPRI bead purification (Beckman Coulter). The unique dual index sequences (IDT® for Illumina® RNA UD Indexes Set A, Ligation, Illumina) were incorporated in the adaptors for multiplexed high-throughput sequencing. The final product was assessed for its size distribution and concentration using BioAnalyzer High Sensitivity DNA Kit (Agilent Technologies). The libraries were pooled and diluted to 3 nM using 10 mM Tris-HCl, pH 8.5, and then denatured using the Illumina protocol. The denatured libraries were loaded onto an S1 flow cell on an Illumina NovaSeq 6000 (Illumina) and run for 2×53 cycles according to the manufacturer's instructions. De-multiplexed and adapter-trimmed sequencing reads were generated using Illumina bcl2fastq (released version 2.20.0) allowing no mismatches in the index read. BBDuk was used to trim/filter low-quality sequences using “qtrim=lr trimq=10 maq=10” option. Next, alignment of the filtered reads to the mouse reference genome (mouse Ensembl release 67 (GRCm37/NCBIM37/mm9)) was done using HISAT2 (version 2.1.0) applying --no-mixed and --no-discordant options. Read counts were calculated using HTSeq by supplementing Ensembl gene annotation (release 67: “Mus_musculus.Ensembl.NCBIM37.67.gtf”). The edgeR R package was used to fit the read counts to the negative binomial model along with the generalized linear model (GLM) and differentially expressed genes were determined by the likelihood ratio test method implemented in the edgeR. […] The ggplot2 R package was used for generating heatmaps. Raw counts and differential expression analysis generated during this study are available at GEO Submission GSE169527.
The Database for Annotation, Visualization, and Integrated Discovery (DAVID) was used for GO functional analysis.

rd10 mice retina [2] = assay: RT-PCR retinal gene expression, rd10 mice
Procedure: Whole retinas were isolated from animals by removing the sclera and most of the retinal pigmented epithelium (RPE) layer under PBS. The right eye retinas from each animal were taken for RNA extraction, cDNA preparation and RT-PCR. Immediately after isolation, tissue was flash frozen in liquid nitrogen and stored at −80° C. Left eye retinas from each animal were subjected to fixation, cryopreservation, sectioning, and immunofluorescence staining. RNA extraction and purification followed the manufacturer's protocol from RNeasy Mini Kit and RNA shredder (Qiagen). […] Primers purchased from Integrated DNA Technologies (IDT). For quantitative real-time PCR we used 2× iQ-SYBR Green PCR supermix from Bio-Rad. Samples in triplicate were run on an iQ5 Multicolor Real Time PCR Detection System (Bio-Rad). The relative expression level for each gene was calculated by the 2-ΔΔCt method and normalized to GAPDH.

GFAP, IBA1 = assay: Immunofluorescence labeling of GFAP and IBA1 in retina sections; settings: rd10, treated PN9 till PN24
Procedure: Fluorescence intensity was assessed using ImageJ software (Bethesda, MD).

WT mice retina = assay: RNA-seq of PN24 retina, WT mice; settings: GSK PN9 till PN24 vs saline; FDR<0.05, fold change >2 or <0.5
Procedure: RNA was extracted from PN24 retina of WT and rd10 animals treated with saline or GSK from PN9 till PN24. RNA integrity number (RIN) was measured using BioAnalyzer (Agilent Technologies) RNA 6000 Nano Kit to confirm RIN above 7 for each sample. The cDNA libraries were prepared using the Illumina® Stranded mRNA Prep, Ligation kit (Illumina) as per the manufacturer's instructions. Briefly, polyA RNA was purified from 200 ng of total RNA using oligo (dT) beads. The extracted mRNA fraction was subjected to fragmentation, reverse transcription, end repair, 3′— end adenylation, and adaptor ligation, followed by PCR amplification and SPRI bead purification (Beckman Coulter). […] The final product was assessed for its size distribution and concentration using BioAnalyzer High Sensitivity DNA Kit (Agilent Technologies). […] De-multiplexed and adapter-trimmed sequencing reads were generated using Illumina bcl2fastq (released version 2.20.0) allowing no mismatches in the index read. […] Next, alignment of the filtered reads to the mouse reference genome (mouse Ensembl release 67 (GRCm37/NCBIM37/mm9)) was done using HISAT2 (version 2.1.0) applying --no-mixed and --no-discordant options. Read counts were calculated using HTSeq by supplementing Ensembl gene annotation (release 67: “Mus_musculus.Ensembl.NCBIM37.67.gtf”). […]

[3] = GSK PN9 till PN24 vs saline, FDR<0.05, fold change >2 or <0.5
[4] = GSK PN9 till PN24, compared with WT
[5] = treated PN9 till PN24 vs saline

O=C(O)c1ccc(CN2CCC(CN[C@@H]3C[C@H]3c3ccccc3)CC2)cc1 [GSK, GSK2879552]
number of genes downregulated (rd10 mice retina [1]; [3]): 369 genes | number of genes upregulated (rd10 mice retina [1]; [3]): 719 genes | genes simultaneously upregulated in rd10 and WT mice retina (rd10 mice retina [1]; GSK, p<0.05, fold change >1.75 or <0.8): approximately 150 genes | expression of genes specific for rod photoreceptors (rd10 mice retina [1]; rd10+GSK retina): returned to normal expression levels | IPA canonical pathways, upregulated (rd10 mice retina [1]; rd10+GSK vs rd10): major upregulated pathway is the phototransduction pathway | IPA canonical pathways, down regulated (rd10 mice retina [1]; rd10+GSK vs rd10, next 4 most important pathways): down regulated pathways were all related to neuroinflammation | expression of resident microglia markers (rd10 mice retina [1]; rd10+GSK, Atp6v0d2, Mcoln3, Cd5l, Ctsd, C1qa, Fcrls, Hexb, Gpr34, Junb, Pclaf, Birc5): went back to normal levels of expression | expression of markers of infiltrating immune cells (rd10 mice retina [1]; rd10+GSK, H2-Aa, cd74, H2-Ab1, H2-Eb1, Cx3cr1 and others): returned to normal levels of expression | expression of amacrine cell markers Clrn1 and Efemp1 (rd10 mice retina [1]; rd10 under GSK inhibition): down-regulated | expression of cell death genes Capn9, Casp1, 12, AifI (rd10 mice retina [1]; rd10 under GSK inhibition): downregulated | expression of Gfap (rd10 mice retina [1]; rd10 under GSK inhibition, did not reach threshold conditions): decreased | expression of cone genes except S-opsin (rd10 mice retina [2]; GSK ESD PN9 till PN24): increased to WT levels | expression of Rho, Prph2, Nr2e3, Nrl, and Pde6b (rd10 mice retina [2]; [4]): increased dramatically and reached WT level | expression of Sag, Rom1, Crx, Cnga1 and Cngb1 (rd10 mice retina [2]; [4]): increased, but not to the WT level | RNA levels of H2-Aa, C1qa, Aif1 and Cx3cr1 (rd10 mice retina [2]; GSK PN9 till PN24 vs saline): reduced | expression of cone markers (rd10 mice retina [2]; GSK daily, PN24, rd10 slightly lower than WT): did not change it | gene expression of INL cell types (rd10 mice retina [2]; GSK from PN30 till PN40, assayed PN40): did not change | expression of Rgr and Hes5 (rd10 mice retina [2]; GSK treatment of rd10 mice): increase | expression of rod photoreceptor genes relative to GAPDH (rd10 mice retina [2]; treated PN9 till PN24, assayed PN24, vs saline): increased expression of almost all rod genes | expression of most other retina cell type markers (rd10 mice retina [2]; treated PN9 till PN24, except Rgr and Hes5): appeared to be decreased | expression of Capn2 and Aifm1 (rd10 mice retina [2]; [5]): somewhat decreased | expression of apoptotic specific genes Bcl2, Apaf1, and Casp9 (rd10 mice retina [2]; [5]): slightly decreased | expression of cone genes Thrb or Gnat2 (rd10 mice retina [2]; [5]): slightly up-regulated | Gfap gene expression and GFAP protein labeling (gliosis) (GFAP, IBA1): reductions in Muller cell activation | IBA1 labeling (microglia) (GFAP, IBA1; levels remained above WT): decreased | number of genes downregulated (WT mice retina): 13 genes | number of genes upregulated (WT mice retina): 77 genes
